Results as given in PMC8009478, “Novel Curcumin-Diethyl Fumarate Hybrid as a Dualistic GSK-3β Inhibitor/Nrf2 Inducer for the Treatment of Parkinson’s Disease” (ACS Chemical Neuroscience, 2020).

What was measured:
SH-SY5Y cells = assay: t-BuOOH-induced intracellular ROS formation (H2DCF-DA probe); type: cell-based, human; conditions: 5 μM for 24 h, then t-BuOOH 100 μM for 30 min
Source text: Oxidative stress represents a remarkable pathological feature in NDDs; it is the consequence of an imbalance between the formation of reactive radical species, among others ROS, and the function of many defense antioxidant enzymes. Initially, the potential of compounds 4–7 as indirect antioxidants was investigated[31] by assessing their capability to protect from oxidative stress through prevention of ROS formation upon exposure to tert-butyl hydroperoxide (t-BuOOH). In detail, SH-SY5Y cells were first chronically treated for 24 h (the time necessary to activate the endogenous antioxidant system) with 4–7 (5 μM) and then exposed to 100 μM of t-BuOOH for 30 min; DMF (5 and 10 μM) was employed as the reference compound. Then, the intracellular ROS formation was detected by fluorescent probe 2′-7′-dichlorodihydrofluorescein diacetate (H2DCF-DA).
Figure 3 Antioxidant activity of compounds 4–7 and DMF against t-BuOOH-induced ROS formation in SH-SY5Y cells. Cells were treated with compounds 4–7 (5 μM) and DMF (5 and 10 μM) for 24 h and then with t-BuOOH (100 μM) for 30 min. At the end of treatment, the ROS formation was evaluated by probe H2DCF-DA. Results are expressed as mean ± SEM of at least three independent experiments (* p < 0.05 and ** p < 0.01 vs cells treated with t-BuOOH at one-way ANOVA with the Dunnett post hoc test).
ROS formation was evaluated by using the fluorescent probe H2DCF-DA, as previously described.[43]

Nrf2/ARE = Nrf2/ARE binding activity, ELISA (TransAM Nrf2 Kit); type: cell-based, human; conditions: 6 h; for Nrf2/ARE binding activity: 5 μM; for Nrf2/ARE effect compared to DMF: compounds and DMF at 5 μM
Description: In light of these findings, 4 and 5 emerged as the most promising to be further studied regarding their effect on the Nrf2/ARE pathway. […] The maximum ratio between nuclear and cytosolic Nrf2 levels was detected after a 3 h treatment for both compounds, while a slight reduction was observed after 6 h.
Figure 5 Effects of compounds 4 and 5 on the Nrf2/ARE signaling pathway (A and B) and NQO1 gene expression (C) in SH-SY5Y cells. (A) Cells were treated with compounds 4 and 5 (5 μM) for different times (1, 3, and 6 h). Translocation of Nrf2 from the cytosol to the nucleus was evaluated by Western blotting. Data are expressed as a ratio between nuclear Nrf2 and cytoplasmic Nrf2 levels and reported as mean ± SEM of at least three independent experiments. (B) Cells were treated with compounds 4 and 5 (5 μM) and DMF (5 μM) for 6 h. The Nrf2/ARE binding activity was determined by an ELISA assay. Results are expressed as fold increase versus untreated cells and reported as mean ± SEM of at least three independent experiments (** p < 0.01 and * p < 0.05 versus untreated cells at the t-test). (C) Cells were treated with compounds 4 and 5 (5 μM) for different times (6, 12, and 24 h). The NQO1 expression was determined by RT-PCR. Results are expressed as the relative normalized expression and reported as mean ± SEM of at least three independent experiments (*** p < 0.001 versus untreated cells at one-way ANOVA with the Dunnett post hoc test).
The levels of active Nrf2 protein were determined on the nuclear extracts (10 μg, see above) by using the DNA-binding ELISA TransAM Nrf2 Kit (Active Motif), according to the manufacturer’s guidelines. In detail, the kit comprises a primary antibody able to recognize an epitope on Nrf2 protein upon ARE binding. In the treated cells, the amount of active Nrf2 protein is expressed as a fold increase in comparison to the corresponding untreated cells.

| Nrf2/ARE binding activity (Nrf2/ARE) | Nrf2/ARE effect compared to DMF (Nrf2/ARE) | Structure (SMILES) | t-BuOOH-induced intracellular ROS formation (SH-SY5Y cells) |
| --- | --- | --- | --- |
| increase in Nrf2/ARE binding activity | superior effects to DMF | CCOC(=O)/C=C/C(C(=O)/C=C/c1ccc(OC)cc1)=C(O)\C=C\c1ccc(OCc2ccccc2)cc1 [Compound 5, Ethyl (2E,4Z,6E)-7-(4-(Benzyloxy)phenyl)-5-hydroxy-4-((E)-3-(4-methoxyphenyl)acryloyl)hepta-2,4,6-trienoate] | significant reduction |
| increase in Nrf2/ARE binding activity | superior effects to DMF | CCOC(=O)/C=C/C(C(=O)/C=C/c1ccc(OC)cc1)=C(O)\C=C\c1ccc(OC)cc1 [Compound 4, Ethyl (2E,4Z,6E)-5-Hydroxy-7-(4-methoxyphenyl)-4-((E)-3-(4-methoxyphenyl)acryloyl)hepta-2,4,6-trienoate] | significant reduction |
